# Data reported in patent US20210094973A1, “HETEROCYCLIC COMPOUNDS” (Hoffmann-La Roche Inc., priority 2019, published 2021).
# Target: T1, MAGL (Homo sapiens, UniProt Q99685)
# T1 sequence (Q99685 1-303): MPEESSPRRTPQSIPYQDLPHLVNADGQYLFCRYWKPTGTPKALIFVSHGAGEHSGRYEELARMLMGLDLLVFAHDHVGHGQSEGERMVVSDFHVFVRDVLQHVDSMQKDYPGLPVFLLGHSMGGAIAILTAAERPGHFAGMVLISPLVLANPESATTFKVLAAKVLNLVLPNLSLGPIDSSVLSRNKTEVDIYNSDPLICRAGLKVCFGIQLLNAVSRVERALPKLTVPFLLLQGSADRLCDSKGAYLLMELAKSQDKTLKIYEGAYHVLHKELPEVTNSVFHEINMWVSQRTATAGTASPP
# Experiment: 2-AG assay (MAGL inhibitory activity, hydrolysis of 2-arachidonoylglycerol followed by mass spectrometry)
# Format: biochemical
# Details: 15 min preincubation at RT, 8 μM 2-arachidonoylglycerol, 30 min at RT, arachidonic acid by MS
# Method: Compounds were profiled for MAGL inhibitory activity by determining the enzymatic activity by following the hydrolysis of the natural substrate 2-arachidonoylglycerol (2-AG) resulting in arachidonic acid, which can be followed by mass spectrometry. This assay is hereinafter abbreviated “2-AG assay”.
# The 2-AG assay was carried out in 384 well assay plates (PP, Greiner Cat #784201) in a total volume of 20 μL. Compound dilutions were made in 100% DMSO (VWR Chemicals 23500.297) in a polypropylene plate in 3-fold dilution steps to give a final concentration range in the assay from 12.5 μM to […]. 0.25 μL compound dilutions (100% DMSO) were added to 9 μL MAGL in assay buffer (50 mM TRIS (GIBCO, 15567-027), 1 mM EDTA (Fluka, 03690-100 mL), 0.01% (v/v) Tween. After shaking, the plate was incubated for 15 min at RT. To start the reaction, 10 μL 2-arachidonoylglycerol in assay buffer was added. The final concentrations in the assay was […] and 8 μM 2-arachidonoylglyerol. After shaking and 30 min incubation at RT, the reaction was quenched by the addition of 40 μL of ACN containing 4 μM of d8-arachidonic acid. The amount of arachidonic acid was traced by an online SPE system (Agilent Rapidfire) coupled to a triple quadrupole mass spectrometer (Agilent 6460). A C18 SPE cartridge (G9205A) was used in an ACN/water liquid setup. The mass spectrometer was operated in negative electrospray mode following the mass transitions 303.1→259.1 for arachidonic acid and 311.1→267.0 for d8-arachidonic acid. The activity of the compounds was calculated based on the ratio of intensities [arachidonic acid/d8-arachidonic acid].
row,Molecule,IC50 [nM]
1,"O=C1CO[C@H]2CCN(C(=O)N3CC(OCc4ccc(OC(F)F)cc4)C3)C[C@H]2N1 [Example 40, (4aR,8aS)-6-(3-((4-(Difluoromethoxy)benzyl)oxy)azetidine-1-carbonyl)hexahydro-2H-pyrido[4,3-b][1,4]oxazin-3(4H)-one]",46.9
2,"O=C1CO[C@H]2CCN(C(=O)N3CCC(Cc4ccc(C(F)(F)F)c(-c5ccccc5)c4)CC3)C[C@H]2N1 [Example 35, (4aR,8aS)-6-[4-[[3-Phenyl-4-(trifluoromethyl)phenyl]methyl]piperidine-1-carbonyl]-4,4a,5,7,8,8a-hexahydropyrido[4,3-b][1,4]oxazin-3-one]",4.6
3,"CC1C(OCc2c(F)cccc2C(F)(F)F)CN1C(=O)N1CC[C@@H]2OCC(=O)N[C@@H]2C1 (single isomer, unassigned) [Example 27]",18.8
4,"O=C1CO[C@H]2CCN(C(=O)N3CC(c4cn(-c5ccc(Cl)cc5Cl)cn4)C3)C[C@H]2N1 [Example 8, (4aR,8aS)-6-[3-[1-(2,4-Dichlorophenyl)imidazol-4-yl]azetidine-1-carbonyl]-4,4a,5,7,8,8a-hexahydropyrido[4,3-b][1,4]oxazin-3-one]",38.8
5,"O=C1CO[C@H]2CCN(C(=O)N3CC(OCc4ccccc4OC(F)(F)F)C3)C[C@H]2N1 [Example 32, (4aR,8aS)-6-(3-((2-(Trifluoromethoxy)benzyl)oxy)azetidine-1-carbonyl)hexahydro-2H-pyrido[4,3-b][1,4]oxazin-3(4H)-one]",22.5
6,"CC(C)COc1ccc(C2CN(C(=O)N3CC[C@@H]4OCC(=O)N[C@@H]4C3)C2)cc1 [Example 11, (4aR,8aS)-6-(3-(4-Isobutoxyphenyl)azetidine-1-carbonyl)hexahydro-2H-pyrido[4,3-b][1,4]oxazin-3(4H)-one]",1.5
7,"CC1(C)CCc2cc(C3CN(C(=O)N4CC[C@@H]5OCC(=O)N[C@@H]5C4)C3)ccc2O1 [Example 10, (4aR,8aS)-6-(3-(2,2-Dimethylchroman-6-yl)azetidine-1-carbonyl)hexahydro-2H-pyrido[4,3-b][1,4]oxazin-3(4H)-one]",6
8,"CC(Oc1ccc(C(F)(F)F)cc1Cl)C1CN(C(=O)N2CC[C@H]3OCC(=O)N[C@H]3C2)C1 (stereo partly drawn) [Example 46, (4aS,8aR)-6-(3-(1-(2-Chloro-4-(trifluoromethyl)phenoxy)ethyl)azetidine-1-carbonyl)hexahydro-2H-pyrido[4,3-b][1,4]oxazin-3(4H)-one]",225
9,"CC1C(OCc2c(F)cccc2C(F)(F)F)CN1C(=O)N1CC[C@@H]2OCC(=O)N[C@@H]2C1 (single isomer, unassigned) [Example 28]",342
10,"O=C1CO[C@H]2CCN(C(=O)N3CC(c4nc(-c5ccc(Cl)cc5Cl)no4)C3)C[C@H]2N1 [Example 16, (4aR,8aS)-6-[3-[3-(2,4-Dichlorophenyl)-1,2,4-oxadiazol-5-yl]azetidine-1-carbonyl]-4,4a,5,7,8,8a-hexahydropyrido[4,3-b][1,4]oxazin-3-one]",24.5
11,"O=C1CO[C@H]2CCN(C(=O)N3CC(c4ccc(C5CCOCC5)cc4)C3)C[C@H]2N1 [Example 5, (4aR,8aS)-6-[3-(4-Tetrahydropyran-4-ylphenyl)azetidine-1-carbonyl]-4,4a,5,7,8,8a-hexahydropyrido[4,3-b][1,4]oxazin-3-one]",6
12,"O=C1CO[C@H]2CCN(C(=O)N3CC(c4noc(-c5ccc(Cl)cc5Cl)n4)C3)C[C@H]2N1 [Example 18, (4aR,8aS)-6-(3-(5-(2,4-Dichlorophenyl)-1,2,4-oxadiazol-3-yl)azetidine-1-carbonyl)hexahydro-2H-pyrido[4,3-b][1,4]oxazin-3(4H)-one]",39.2
13,"O=C1CO[C@H]2CCN(C(=O)N3CCC(OCc4ccc(C(F)(F)F)cc4Cl)CC3)C[C@H]2N1 [Example 26, (4aR,8aS)-6-(4-((2-chloro-4-(trifluoromethyl)benzyl)oxy)piperidine-1-carbonyl)hexahydro-2H-pyrido[4,3-b][1,4]oxazin-3(4H)-one]",5.2
14,"(4aR,8aS)-6-[rel-(3R,4R)-4-[(2-chloro-4-fluoro-phenoxy)methyl]-3-methyl-piperidine-1-carbonyl]-4,4a,5,7,8,8a-hexahydropyrido[4,3-b][1,4]oxazin-3-one [Example 39]",1.9
15,"O=C1CO[C@H]2CCN(C(=O)N3CCC(c4ccn(-c5ccc(F)cc5)n4)CC3)C[C@H]2N1 [Example 20, (4aR,8aS)-6-(4-(1-(4-Fluorophenyl)-1H-pyrazol-3-yl)piperidine-1-carbonyl)hexahydro-2H-pyrido[4,3-b][1,4]oxazin-3(4H)-one]",147
16,"O=C1CO[C@H]2CCN(C(=O)N3CC(c4nc(-c5ccc(Cl)cc5C(F)(F)F)no4)C3)C[C@H]2N1 [Example 9, (4aR,8aS)-6-[3-[3-[4-Chloro-2-(trifluoromethyl)phenyl]-1,2,4-oxadiazol-5-yl]azetidine-1-carbonyl]-4,4a,5,7,8,8a-hexahydropyrido[4,3-b][1,4]oxazin-3-one]",23.5
17,"O=C1CO[C@H]2CCN(C(=O)N3CC(OCc4ccc(OC(F)(F)F)cc4)C3)C[C@H]2N1 [Example 44, (4aR,8aS)-6-(3-((4-(Trifluoromethoxy)benzyl)oxy)azetidine-1-carbonyl)hexahydro-2H-pyrido[4,3-b][1,4]oxazin-3(4H)-one]",23.6
18,"O=C1CO[C@H]2CCN(C(=O)N3CC(OCc4ccc(F)cc4C(F)(F)F)C3)C[C@H]2N1 [Example 49, (4aR,8aS)-6-[3-[[4-Fluoro-2-(trifluoromethyl)phenyl]methoxy]azetidine-1-carbonyl]-4,4a,5,7,8,8a-hexahydropyrido[4,3-b][1,4]oxazin-3-one]",34
19,"O=C1CO[C@H]2CCN(C(=O)N3CC(C(=O)Nc4ccc(F)cc4Cl)C3)C[C@H]2N1 [Example 45, N-(2-chloro-4-fluorophenyl)-1-((4aR,8aS)-3-oxooctahydro-2H-pyrido[4,3-b][1,4]oxazine-6-carbonyl)azetidine-3-carboxamide]",1250
20,"O=C1CO[C@H]2CCN(C(=O)N3CC(c4ccc(OC5CC(F)(F)C5)cc4)C3)C[C@H]2N1 [Example 3, (4aR,8aS)-6-[3-[4-(3,3-Difluorocyclobutoxy)phenyl]azetidine-1-carbonyl]-4,4a,5,7,8,8a-hexahydropyrido[4,3-b][1,4]oxazin-3-one]",4.1
21,"O=C1CO[C@H]2CCN(C(=O)N3CC(OCc4cc(Cl)cc(Cl)c4)C3)C[C@H]2N1 [Example 22, (4aR,8aS)-6-(3-((3,5-Dichlorobenzyl)oxy)azetidine-1-carbonyl)hexahydro-2H-pyrido[4,3-b][1,4]oxazin-3(4H)-one]",13.4
22,"O=C1CO[C@H]2CCN(C(=O)N3CC(OCc4ccc(S(F)(F)(F)(F)F)cc4)C3)C[C@H]2N1 [Example 31, (4aR,8aS)-6-(3-((4-(Pentafluoro-16-sulfanyl)benzyl)oxy)azetidine-1-carbonyl)hexahydro-2H-pyrido[4,3-b][1,4]oxazin-3(4H)-one]",5.8
23,"(4aR,8aS)-6-[rel-(3R,4R)-4-[(2-chloro-4-fluoro-phenoxy)methyl]-3-methyl-piperidine-1-carbonyl]-4,4a,5,7,8,8a-hexahydropyrido[4,3-b][1,4]oxazin-3-one [Example 38]",6.4
